Laboratory results from the CheMixHub ionic liquid set.

Assay: xn = mol fraction of the nth substance listed
Settings: 100 kPa

CCCCCCCC[n+]1ccccc1.[Br-] + CC(C)C[C@H](NC(=O)CN)C(=O)O + O
Settings	electrical conductivity [S/m]
288.15 K, x2 = 0.0008948, x1 = 0.005958	1.18
288.15 K, x2 = 0.0008949, x1 = 0.005845	1.16
288.15 K, x2 = 0.0008952, x1 = 0.005555	1.12
288.15 K, x2 = 0.0008955, x1 = 0.005223	1.08
288.15 K, x2 = 0.0008958, x1 = 0.004874	1.04
288.15 K, x2 = 0.0008961, x1 = 0.00451	0.998
288.15 K, x2 = 0.0008965, x1 = 0.00409	0.947
288.15 K, x2 = 0.0008969, x1 = 0.003625	0.867
288.15 K, x2 = 0.0008973, x1 = 0.003174	0.789
288.15 K, x2 = 0.0008978, x1 = 0.002616	0.679
288.15 K, x2 = 0.0008984, x1 = 0.002001	0.558
288.15 K, x2 = 0.0008987, x1 = 0.001608	0.469
288.15 K, x2 = 0.0008991, x1 = 0.001214	0.381
288.15 K, x2 = 0.0008996, x1 = 0.0007137	0.253
288.15 K, x2 = 0.001788, x1 = 0.005808	1.12
288.15 K, x2 = 0.001789, x1 = 0.005199	1.05
288.15 K, x2 = 0.001789, x1 = 0.005515	1.09
288.15 K, x2 = 0.00179, x1 = 0.004871	1.01
288.15 K, x2 = 0.001791, x1 = 0.00409	0.911
288.15 K, x2 = 0.001791, x1 = 0.004503	0.962
288.15 K, x2 = 0.001792, x1 = 0.003639	0.855
288.15 K, x2 = 0.001793, x1 = 0.003149	0.766
288.15 K, x2 = 0.001794, x1 = 0.002603	0.666
288.15 K, x2 = 0.001795, x1 = 0.002003	0.545
288.15 K, x2 = 0.001796, x1 = 0.001632	0.462
288.15 K, x2 = 0.001797, x1 = 0.0008258	0.273
288.15 K, x2 = 0.001797, x1 = 0.001246	0.37
293.15 K, x2 = 0.0008948, x1 = 0.005956	1.31
293.15 K, x2 = 0.0008949, x1 = 0.005843	1.3
293.15 K, x2 = 0.0008952, x1 = 0.005554	1.27
293.15 K, x2 = 0.0008955, x1 = 0.005223	1.22
293.15 K, x2 = 0.0008958, x1 = 0.004874	1.17
293.15 K, x2 = 0.0008961, x1 = 0.004508	1.12
293.15 K, x2 = 0.0008965, x1 = 0.004089	1.06
293.15 K, x2 = 0.0008969, x1 = 0.003623	0.983
293.15 K, x2 = 0.0008973, x1 = 0.003174	0.894
293.15 K, x2 = 0.0008978, x1 = 0.002616	0.781
293.15 K, x2 = 0.0008984, x1 = 0.002001	0.632
293.15 K, x2 = 0.0008987, x1 = 0.001608	0.526
293.15 K, x2 = 0.0008991, x1 = 0.001214	0.427
293.15 K, x2 = 0.0008996, x1 = 0.0007137	0.283
293.15 K, x2 = 0.001788, x1 = 0.005807	1.28
293.15 K, x2 = 0.001789, x1 = 0.005198	1.19
293.15 K, x2 = 0.001789, x1 = 0.005513	1.24
293.15 K, x2 = 0.00179, x1 = 0.004869	1.14
293.15 K, x2 = 0.001791, x1 = 0.00409	1.04
293.15 K, x2 = 0.001791, x1 = 0.004503	1.1
293.15 K, x2 = 0.001792, x1 = 0.003637	0.959
293.15 K, x2 = 0.001793, x1 = 0.003149	0.869
293.15 K, x2 = 0.001794, x1 = 0.002603	0.756
293.15 K, x2 = 0.001795, x1 = 0.002003	0.615
293.15 K, x2 = 0.001796, x1 = 0.001632	0.523
293.15 K, x2 = 0.001797, x1 = 0.0008258	0.306
293.15 K, x2 = 0.001797, x1 = 0.001246	0.419
298.15 K, x2 = 0.0008948, x1 = 0.005954	1.49
298.15 K, x2 = 0.0008949, x1 = 0.005843	1.48
298.15 K, x2 = 0.0008952, x1 = 0.005554	1.44
298.15 K, x2 = 0.0008955, x1 = 0.005221	1.38
298.15 K, x2 = 0.0008958, x1 = 0.004872	1.34
298.15 K, x2 = 0.0008961, x1 = 0.004508	1.29
298.15 K, x2 = 0.0008965, x1 = 0.004089	1.21
298.15 K, x2 = 0.0008969, x1 = 0.003623	1.12
298.15 K, x2 = 0.0008973, x1 = 0.003174	1.02
298.15 K, x2 = 0.0008978, x1 = 0.002616	0.883
298.15 K, x2 = 0.0008984, x1 = 0.002001	0.72
298.15 K, x2 = 0.0008987, x1 = 0.001608	0.604
298.15 K, x2 = 0.0008991, x1 = 0.001214	0.48
298.15 K, x2 = 0.0008996, x1 = 0.0007137	0.314
298.15 K, x2 = 0.001788, x1 = 0.005807	1.46
298.15 K, x2 = 0.001789, x1 = 0.005198	1.36
298.15 K, x2 = 0.001789, x1 = 0.005513	1.41
298.15 K, x2 = 0.00179, x1 = 0.004869	1.31
298.15 K, x2 = 0.001791, x1 = 0.004088	1.17
298.15 K, x2 = 0.001791, x1 = 0.004501	1.25
298.15 K, x2 = 0.001792, x1 = 0.003637	1.09
298.15 K, x2 = 0.001793, x1 = 0.003149	0.978
298.15 K, x2 = 0.001794, x1 = 0.002603	0.849
298.15 K, x2 = 0.001795, x1 = 0.002003	0.689
298.15 K, x2 = 0.001796, x1 = 0.001632	0.585
298.15 K, x2 = 0.001797, x1 = 0.0008258	0.341
298.15 K, x2 = 0.001797, x1 = 0.001246	0.469
303.15 K, x2 = 0.0008948, x1 = 0.005952	1.67
303.15 K, x2 = 0.0008949, x1 = 0.005839	1.65
303.15 K, x2 = 0.0008952, x1 = 0.00555	1.6
303.15 K, x2 = 0.0008955, x1 = 0.005219	1.54
303.15 K, x2 = 0.0008958, x1 = 0.00487	1.49
303.15 K, x2 = 0.0008961, x1 = 0.004507	1.43
303.15 K, x2 = 0.0008965, x1 = 0.004087	1.34
303.15 K, x2 = 0.0008969, x1 = 0.003621	1.24
303.15 K, x2 = 0.0008973, x1 = 0.003172	1.12
303.15 K, x2 = 0.0008978, x1 = 0.002616	0.97
303.15 K, x2 = 0.0008984, x1 = 0.001999	0.789
303.15 K, x2 = 0.0008987, x1 = 0.001608	0.66
303.15 K, x2 = 0.0008991, x1 = 0.001214	0.531
303.15 K, x2 = 0.0008996, x1 = 0.0007137	0.347
303.15 K, x2 = 0.001789, x1 = 0.005196	1.52
303.15 K, x2 = 0.001789, x1 = 0.005509	1.58
303.15 K, x2 = 0.00179, x1 = 0.004867	1.46
303.15 K, x2 = 0.001791, x1 = 0.004088	1.31
303.15 K, x2 = 0.001791, x1 = 0.004501	1.4
303.15 K, x2 = 0.001792, x1 = 0.003637	1.21
303.15 K, x2 = 0.001793, x1 = 0.003148	1.09
303.15 K, x2 = 0.001794, x1 = 0.002601	0.944
303.15 K, x2 = 0.001795, x1 = 0.002003	0.768
303.15 K, x2 = 0.001796, x1 = 0.001632	0.65
303.15 K, x2 = 0.001797, x1 = 0.0008258	0.377
303.15 K, x2 = 0.001797, x1 = 0.001246	0.521
308.15 K, x2 = 0.0008948, x1 = 0.005949	1.85
308.15 K, x2 = 0.0008949, x1 = 0.005837	1.83
308.15 K, x2 = 0.0008952, x1 = 0.005548	1.78
308.15 K, x2 = 0.0008955, x1 = 0.005217	1.71
308.15 K, x2 = 0.0008958, x1 = 0.004868	1.65
308.15 K, x2 = 0.0008961, x1 = 0.004505	1.57
308.15 K, x2 = 0.0008965, x1 = 0.004085	1.49
308.15 K, x2 = 0.0008969, x1 = 0.003621	1.36
308.15 K, x2 = 0.0008973, x1 = 0.003172	1.23
308.15 K, x2 = 0.0008978, x1 = 0.002614	1.06
308.15 K, x2 = 0.0008984, x1 = 0.001999	0.852
308.15 K, x2 = 0.0008987, x1 = 0.001608	0.718
308.15 K, x2 = 0.0008991, x1 = 0.001214	0.577
308.15 K, x2 = 0.0008996, x1 = 0.0007137	0.379
308.15 K, x2 = 0.001789, x1 = 0.005194	1.69
308.15 K, x2 = 0.001789, x1 = 0.005508	1.75
308.15 K, x2 = 0.00179, x1 = 0.004866	1.63
308.15 K, x2 = 0.001791, x1 = 0.004086	1.46
308.15 K, x2 = 0.001791, x1 = 0.004499	1.55
308.15 K, x2 = 0.001792, x1 = 0.003635	1.33
308.15 K, x2 = 0.001793, x1 = 0.003148	1.21
308.15 K, x2 = 0.001794, x1 = 0.002601	1.04
308.15 K, x2 = 0.001795, x1 = 0.002003	0.843
308.15 K, x2 = 0.001796, x1 = 0.00163	0.713
308.15 K, x2 = 0.001797, x1 = 0.0008258	0.415
308.15 K, x2 = 0.001797, x1 = 0.001246	0.576
